From patent US9302999B2, “Substituted triazoles as herbicides” (E. I. DU PONT DE NEMOURS AND COMPANY, priority 2012, dated 2016)

How the values were obtained:
Assay type in all cases: in vivo
[1] = tested on: crabgrass, large (large crabgrass, Digitaria sanguinalis); experiment: Test A pre-/postemergence: crabgrass, large
Outline: (§1)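 Pre: directed soil spray after planting in loam + sand. Post: same formulation (non-phytotoxic solvent + surfactant) on 1–2-leaf plants, 2–10 cm. Greenhouse ~10 d; visual injury 0–100 vs untreated.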

[2] = tested on: sedge, umbrella (small-flower umbrella sedge Cyperus difformis); experiment: Test B flooded paddy: sedge, umbrella; settings: Flood; 125 g ai/ha; applied to paddy water at 2-leaf stage; visually evaluated after 13 to 15 days
Outline: (§2)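 2-leaf plants; pots flooded 3 cm over soil; compound added to paddy water, depth kept constant. Greenhouse 13–15 d. Visual rating vs controls, 0–100 scale (100 = complete control); dash = no result.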

[3] = tested on: wheat (Triticum aestivum); experiment: Test A pre-/postemergence: wheat
Outline: as §1

[4] = tested on: velvetleaf (Abutilon theophrasti); experiment: Test A pre-/postemergence: velvetleaf
Outline: as §1

[5] = tested on: foxtail, giant (giant foxtail, Setaria faberii); experiment: Test A pre-/postemergence: foxtail, giant
Outline: as §1

[6] = tested on: barnyardgrass (Echinochloa crus-galli); experiment: Test B flooded paddy: barnyardgrass; settings: Flood; 125 g ai/ha; applied to paddy water at 2-leaf stage; visually evaluated after 13 to 15 days
Outline: as §2

rice (Oryza sativa) = experiment: Test B flooded paddy: rice; settings: Flood; 125 g ai/ha; applied to paddy water at 2-leaf stage; visually evaluated after 13 to 15 days
Outline: as §2

[7] = tested on: ducksalad (Heteranthera limosa); experiment: Test B flooded paddy: ducksalad; settings: Flood; 125 g ai/ha; applied to paddy water at 2-leaf stage; visually evaluated after 13 to 15 days
Outline: as §2

corn (Zea mays) = experiment: Test A pre-/postemergence: corn
Outline: as §1

[8] = tested on: barnyardgrass (Echinochloa crus-galli); experiment: Test A pre-/postemergence: barnyardgrass
Outline: as §1

[9] = tested on: morningglory (Ipomoea spp.); experiment: Test A pre-/postemergence: morningglory
Outline: as §1

[10] = tested on: pigweed (Amaranthus retroflexus); experiment: Test A pre-/postemergence: pigweed
Outline: as §1

[11] = Postemergence, 125 g ai/ha, 0 to 100 scale, 0 is no effect, 100 is complete control
[12] = Postemergence, 500 g ai/ha, visual rating on 0 to 100 scale (0 no effect, 100 complete control), approximately ten days
[13] = Preemergence, 125 g ai/ha, 0 to 100 scale where 0 is no effect and 100 is complete control
[14] = Preemergence, 500 g ai/ha, 0 to 100 scale (0 no effect, 100 complete control)
[15] = Postemergence, 500 g ai/ha, 0 to 100 scale, 0 is no effect, 100 is complete control

SMILES	Plant response rating, Crabgrass, Large [1, 11]	Plant response rating, Crabgrass, Large [1, 13]	Plant response rating, Crabgrass, Large [1, 14]	Plant response rating, Sedge, Umbrella (0 to 100 scale, 0 is no effect, 100 is complete control) [2]	Plant response rating, Wheat [3, 11]	Plant response rating, Wheat [3, 13]	Plant response rating, Wheat [3, 14]	Plant response rating, Velvetleaf [4, 11]	Plant response rating, Velvetleaf [4, 13]	Plant response rating, Velvetleaf [4, 14]	Plant response rating, Foxtail, Giant [5, 11]	Plant response rating, Foxtail, Giant [5, 13]	Plant response rating, Foxtail, Giant [5, 14]	Plant response rating, Barnyardgrass (0 to 100 scale, 0 is no effect, 100 is complete control) [6]	Plant response rating, Rice (0 to 100 scale, 0 is no effect, 100 is complete control) (rice (Oryza sativa))	Plant response rating, Ducksalad (0 to 100 scale, 0 is no effect, 100 is complete control) [7]	Plant response rating, Corn (corn (Zea mays); [11])	Plant response rating, Corn (corn (Zea mays); [13])	Plant response rating, Corn (corn (Zea mays); [14])	Plant response rating, Barnyardgrass [8, 11]	other results
COCc1nn(-c2ccc(F)cc2)nc1Oc1ccnc(C(F)(F)F)c1 [Compound 161]	70	100	100	80	10	0	10	40	0	50	60	100	100	0	20	0	10	10	10	30	Crabgrass, Large plant response rating [1, 12]: 90; Wheat plant response rating [3, 12]: 30; Velvetleaf plant response rating [4, 12]: 80; Foxtail, Giant plant response rating [5, 12]: 90; Corn plant response rating (corn (Zea mays); [12]): 30; Barnyardgrass plant response rating [8, 12]: 70; Plant response rating, Barnyardgrass [8, 13]: 20; Plant response rating, Barnyardgrass [8, 14]: 60; Plant response rating, Morningglory [9, 11]: 30; Morningglory plant response rating [9, 12]: 50; Plant response rating, Morningglory [9, 13]: 10; Plant response rating, Morningglory [9, 14]: 10; Plant response rating, Pigweed [10, 11]: 100; Pigweed plant response rating [10, 12]: 100; Plant response rating, Pigweed [10, 13]: 100; Plant response rating, Pigweed [10, 14]: 100
COc1nn(-c2ccc(F)cc2F)nc1Cc1ccnc(C(F)(F)F)c1 [Compound 165]	70	100	100	70	20	0	0	40	0	10	60	90	100	10	20	40	20	0	10	40	Crabgrass, Large plant response rating [1, 15]: 90; Wheat plant response rating [3, 15]: 30; Velvetleaf plant response rating [4, 15]: 70; Foxtail, Giant plant response rating [5, 15]: 90; Corn plant response rating (corn (Zea mays); [15]): 30; Barnyardgrass plant response rating [8, 15]: 90; Plant response rating, Barnyardgrass [8, 13]: 30; Plant response rating, Barnyardgrass [8, 14]: 100; Plant response rating, Morningglory [9, 11]: 60; Morningglory plant response rating [9, 15]: 80; Plant response rating, Pigweed [10, 11]: 100; Pigweed plant response rating [10, 15]: 100; Plant response rating, Pigweed [10, 13]: 100; Plant response rating, Pigweed [10, 14]: 100
CC(C)(C)c1nn(-c2ccc(F)cc2)nc1C(=O)c1ccnc(C(F)(F)F)c1 [Compound 175]	0	0	0	0	0	0	0	0	0	0	0	0	0	0	0	0	0	0	0	0	Crabgrass, Large plant response rating [1, 15]: 0; Wheat plant response rating [3, 15]: 0; Velvetleaf plant response rating [4, 15]: 0; Foxtail, Giant plant response rating [5, 15]: 0; Corn plant response rating (corn (Zea mays); [15]): 0; Barnyardgrass plant response rating [8, 15]: 0; Plant response rating, Barnyardgrass [8, 13]: 0; Plant response rating, Barnyardgrass [8, 14]: 0; Plant response rating, Morningglory [9, 11]: 0; Morningglory plant response rating [9, 15]: 0; Plant response rating, Morningglory [9, 13]: 0; Plant response rating, Morningglory [9, 14]: 0; Plant response rating, Pigweed [10, 11]: 0; Pigweed plant response rating [10, 15]: 0; Plant response rating, Pigweed [10, 13]: 0; Plant response rating, Pigweed [10, 14]: 0
CCc1nn(-c2ccc(F)cc2F)nc1Oc1ccnc(C(F)(F)F)c1 [Compound 178]	90	90	100	60	20	0	10	60	10	60	60	90	100	0	20	30	20	0	10	30	Crabgrass, Large plant response rating [1, 15]: 90; Wheat plant response rating [3, 15]: 40; Velvetleaf plant response rating [4, 15]: 100; Foxtail, Giant plant response rating [5, 15]: 90; Corn plant response rating (corn (Zea mays); [15]): 30; Barnyardgrass plant response rating [8, 15]: 80; Plant response rating, Barnyardgrass [8, 13]: 20; Plant response rating, Barnyardgrass [8, 14]: 100; Plant response rating, Morningglory [9, 11]: 90; Morningglory plant response rating [9, 15]: 100; Plant response rating, Morningglory [9, 13]: 0; Plant response rating, Morningglory [9, 14]: 60; Plant response rating, Pigweed [10, 11]: 100; Pigweed plant response rating [10, 15]: 100; Plant response rating, Pigweed [10, 13]: 100; Plant response rating, Pigweed [10, 14]: 100
